In patent publication US20140275063A1, “NEW ENZYME INHIBITOR COMPOUNDS” (PROXIMAGEN LIMITED, priority 2011, published 2014):

The molecules below were run against T1, human SSAO (Homo sapiens, UniProt Q16853) (assay: SSAO inhibitory activity (HRP-coupled hydrogen peroxide detection or 14C-benzaldehyde detection, benzylamine substrate)). Conditions: purified recombinantly expressed human SSAO, benzylamine as substrate, RT.
T1 construct: made in house
T1 sequence (Q16853 29-763 limits assumed): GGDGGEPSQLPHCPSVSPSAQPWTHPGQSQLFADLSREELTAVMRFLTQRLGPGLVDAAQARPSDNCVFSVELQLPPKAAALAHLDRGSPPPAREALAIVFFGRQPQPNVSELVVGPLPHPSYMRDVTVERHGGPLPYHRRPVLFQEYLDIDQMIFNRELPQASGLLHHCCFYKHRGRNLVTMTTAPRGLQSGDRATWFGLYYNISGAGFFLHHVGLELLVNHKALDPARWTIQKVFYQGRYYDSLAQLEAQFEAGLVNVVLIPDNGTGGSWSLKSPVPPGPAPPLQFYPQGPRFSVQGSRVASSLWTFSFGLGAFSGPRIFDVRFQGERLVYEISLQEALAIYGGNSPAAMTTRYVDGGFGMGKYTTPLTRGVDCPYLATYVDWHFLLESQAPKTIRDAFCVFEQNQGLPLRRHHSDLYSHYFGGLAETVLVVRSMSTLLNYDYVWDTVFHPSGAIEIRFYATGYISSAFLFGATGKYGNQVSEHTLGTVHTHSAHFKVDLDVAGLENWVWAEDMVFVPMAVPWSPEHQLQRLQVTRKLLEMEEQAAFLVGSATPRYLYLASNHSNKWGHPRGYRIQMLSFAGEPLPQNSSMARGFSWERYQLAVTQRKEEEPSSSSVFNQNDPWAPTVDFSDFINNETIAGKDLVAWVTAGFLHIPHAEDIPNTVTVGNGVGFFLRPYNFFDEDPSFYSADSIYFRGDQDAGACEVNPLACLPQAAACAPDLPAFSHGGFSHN
Type: biochemical
Method: All primary assays were performed at RT. with purified recombinantly expressed human SSAO. Enzyme was prepared essentially as described in Öhman et al. (Protein Expression and Purification 46 (2006) 321-331). In addition, secondary- and selectivity assays were performed using SSAO prepared from various tissues or purified rat recombinant SSAO. The enzyme activity was assayed with benzylamine as substrate by measuring either benzaldehyde production, using ^14C-labeled substrate, or by utilizing the production of hydrogen peroxide in a horseradish peroxidase (HRP) coupled reaction. Briefly, test compounds were dissolved in dimethyl sulfoxide (DMSO) to a concentration of 10 mM. Dose-response measurements were assayed by either creating 1:10 serial dilutions in DMSO to produce a 7 point curve or by making 1:3 serial dilutions in DMSO to produce 11 point curves. The top concentrations were adjusted depending on the potency of the compounds and subsequent dilution in reaction buffer yielded a final DMSO concentration ≦2%.
In a horseradish peroxidase (HRP) coupled reaction, hydrogen peroxide oxidation of 10-acetyl-3,7-dihydroxyphenoxazine produced resorufin, which is a highly fluorescent compound (Zhout and Panchuk-Voloshina. Analytical Biochemistry 253 (1997) 169-174; Amplex® Red Hydrogen Peroxideperoxidase Assay kit, Invitrogen A22188). Enzyme and compounds in 50 mM sodium phosphate, pH 7.4 were set to pre-incubate in flat-bottomed microtiter plates for approximately 15 minutes before initiating the reaction by addition of a mixture of HRP, benzylamine and Amplex reagent. Benzylamine concentration was fixed at a concentration corresponding to the Michaelis constant, determined using standard procedures. Fluorescence intensity was then measured at several time points during 1-2 hours, exciting at 544 nm and reading the emission at 590 nm. For the human SSAO assay final concentrations of the reagents in the assay wells were: SSAO enzyme 1 μg/ml, benzylamine 100 μM, Amplex reagent 20 μM, HRP 0.1 U/mL and varying concentrations of test compound. The inhibition was measured as % decrease of the signal compared to a control without inhibitor (only diluted DMSO). The background signal from a sample containing no SSAO enzyme was subtracted from all data points. Data was fitted to a four parameter logistic model and IC50 values were calculated using the Graph Pad Prism 4 or XLfit 4 programs.
SSAO activity was assayed using 14C-labeled benzylamine and analysed by measuring radioactive benzaldehyde. In a white 96-well optiplate (Packard), 20 μL of diluted test compound was pre-incubated at RT. with 20 μL SSAO enzyme for approximately 15 minutes with continuous agitation. All dilutions were made with PBS. The reaction was initiated by adding 20 μL of the benzylamine substrate solution containing [7-14C] Benzylamine hydrochloride (CFA589, GE Healthcare). The plate was incubated for 1 hour as above after which the reaction was stopped by acidification (10 μL 1 M HCl). Then 90 μL Micro Scint-E solution (Perkin-Elmer) was added to each well and the plate was continuously mixed for 15 minutes. Phase separation occurred instantly and activity was read in a Topcount scintillation counter (Perkin-Elmer). In the final reaction well, the human recombinant SSAO concentration was 10 μg/ml. In order to optimize sensitivity, the substrate concentration was decreased as compared to the HRP coupled assay in order to get a higher fraction of radioactive product. In the human SSAO assay, benzylamine concentration was 40 μM (0.2 μCi/mL). Data was analysed as above.

Compound | IC50
Clc1ccc(-n2cc(C3CCN(C4CCNC4)CC3)c3ccncc32)cc1 (centres unmarked) [Compound 1, 4-[1-(4-Chlorophenyl)-1H-pyrrolo[2,3-c]pyridin-3-yl]-1-(pyrrolidin-3-yl)piperidine] | < 100 nM
Clc1ccc(-n2cc(C3CCN(C4CCNCC4)CC3)c3ccncc32)cc1 [Compound 2, 4-[1-(4-Chlorophenyl)-1H-pyrrolo[2,3-c]pyridin-3-yl]-1-(piperidin-4-yl)piperidine] | 100 to 500 nM
Clc1ccc(-n2cc(C3CCN(CC4CCNCC4)CC3)c3ccncc32)cc1 [Compound 3, 4-[1-(4-Chlorophenyl)-1H-pyrrolo[2,3-c]pyridin-3-yl]-1-(piperidin-4-ylmethyl) piperidine] | 100 to 500 nM
O=C(CC1CCNCC1)N1CCC(c2cn(-c3ccc(Cl)cc3)c3cnccc23)CC1 [Compound 4, 1-{4-[1-(4-Chlorophenyl)-1H-pyrrolo[2,3-c]pyridin-3-yl]piperidin-1-yl}-2-(piperidin-4-yl)ethan-1-one] | < 100 nM
O=C(NCC1CCNCC1)N1CCC(c2cn(-c3ccc(Cl)cc3)c3cnccc23)CC1 [Compound 6, 4-[1-(4-Chlorophenyl)-1H-pyrrolo[2,3-c]pyridin-3-yl]-N-(piperidin-4-ylmethyl)piperidine-1-carboxamide] | < 100 nM
O=C(NC1CCNCC1)N1CCC(c2cn(-c3ccc(Cl)cc3)c3cnccc23)CC1 [Compound 7, 4-[1-(4-Chlorophenyl)-1H-pyrrolo[2,3-c]pyridin-3-yl]-N-(piperidin-4-yl) piperidine-1-carboxamide] | < 100 nM
CC(C)N1CCC(NC(=O)N2CCC(c3cn(-c4ccc(Cl)cc4)c4cnccc34)CC2)CC1 [Compound 9, 4-[1-(4-Chlorophenyl)-1H-pyrrolo[2,3-c]pyridin-3-yl]-N-[1-(propan-2-yl)piperidin-4-yl] piperidine-1-carboxamide] | < 100 nM
CC(=O)N1CCC(NC(=O)N2CCC(c3cn(-c4ccc(Cl)cc4)c4cnccc34)CC2)CC1 [Compound 10, N-(1-Acetylpiperidin-4-yl)-4-[1-(4-chlorophenyl)-1H-pyrrolo [2,3-c]pyridin-3-yl]piperidine-1-carboxamide] | < 100 nM
CCN1CCC(CNC(=O)N2CCC(c3cn(-c4ccc(Cl)cc4)c4cnccc34)CC2)CC1 [Compound 12, 4-[1-(4-Chlorophenyl)-1H-pyrrolo[2,3-c]pyridin-3-yl]-N-[(1-ethylpiperidin-4-yl)methyl] piperidine-1-carboxamide] | < 100 nM
NC(=O)CN1CCC(CNC(=O)N2CCC(c3cn(-c4ccc(Cl)cc4)c4cnccc34)CC2)CC1 [Compound 14, N-{[1-(Carbamoyl-methyl)piperidin-4-yl]methyl}-4-[1-(4-chlorophenyl)-1H-pyrrolo[2,3-c]pyridin-3-yl] piperidine-1-carboxamide; formic acid] | < 100 nM
CC(C)N1CCC(CN(C)C(=O)N2CCC(c3cn(-c4ccc(Cl)cc4)c4cnccc34)CC2)CC1 [Compound 15, 4-[1-(4-Chlorophenyl)-1H-pyrrolo[2,3-c]pyridin-3-yl]-N-methyl-N-{[1-(propan-2-yl)piperidin-4-yl]methyl} piperidine-1-carboxamide] | < 100 nM
O=C(NCC1CNCCO1)N1CCC(c2cn(-c3ccc(Cl)cc3)c3cnccc23)CC1 (centres unmarked) [Compound 20, 4-[1-(4-Chlorophenyl)-1H-pyrrolo[2,3-c]pyridin-3-yl]-N-(morpholin-2-ylmethyl) pipendine-1-carboxamide] | < 100 nM

Results, then the molecule that gave them:

IC50 | Compound
< 100 nM | CN1CCN(C(=O)N2CCC(c3cn(-c4ccc(Cl)cc4)c4cnccc34)CC2)CC1 [Compound 5, 1-({4-[1-(4-Chlorophenyl)-1H-pyrrolo[2,3-c]pyridin-3-yl]piperidin-1-yl}carbonyl)-4-methylpiperazine]
< 100 nM | CN1CCC(NC(=O)N2CCC(c3cn(-c4ccc(Cl)cc4)c4cnccc34)CC2)CC1 [Compound 8, 4-[1-(4-Chlorophenyl)-1H-pyrrolo[2,3-c]pyridin-3-yl]-N-(1-methylpiperidin-4-yl)piperidine-1-carboxamide]
< 100 nM | CN1CCC(CNC(=O)N2CCC(c3cn(-c4ccc(Cl)cc4)c4cnccc34)CC2)CC1 [Compound 11, 4-[1-(4-Chlorophenyl)-1H-pyrrolo[2,3-c]pyridin-3-yl]-N-[(1-methylpiperidin-4-yl)methyl] piperidine-1-carboxamide]
< 100 nM | CN1CCC(CN(C)C(=O)N2CCC(c3cn(-c4ccc(Cl)cc4)c4cnccc34)CC2)CC1 [Compound 13, 4-[1-(4-Chlorophenyl)-1H-pyrrolo[2,3-c]pyridin-3-yl]-N-methyl-N-[(1-methylpiperidin-4-yl)methyl] piperidine-1-carboxamide; formic acid]
< 100 nM | O=C(N1CCC(c2cn(-c3ccc(Cl)cc3)c3cnccc23)CC1)N1CCN(C2CC2)CC1 [Compound 16, 1-({4-[1-(4-Chlorophenyl)-1H-pyrrolo[2,3-c]pyridin-3-yl]piperidin-1-yl}carbonyl)-4-cyclopropyl-piperazine]
< 100 nM | CC(C)N1CCN(C(=O)N2CCC(c3cn(-c4ccc(Cl)cc4)c4cnccc34)CC2)CC1 [Compound 17, 1-({4-[1-(4-Chlorophenyl)-1H-pyrrolo[2,3-c]pyridin-3-yl]piperidin-1-yl}carbonyl)-4-(propan-2-yl)piperazine]
< 100 nM | COCCN1CCN(C(=O)N2CCC(c3cn(-c4ccc(Cl)cc4)c4cnccc34)CC2)CC1 [Compound 18, 1-({4-[1-(4-Chlorophenyl)-1H-pyrrolo[2,3-c]pyridin-3-yl]piperidin-1-yl}carbonyl)-4-(2-methoxyethyl) piperazine]
< 100 nM | CC(C)[C@H]1CN(C(=O)N2CCC(c3cn(-c4ccc(Cl)cc4)c4cnccc34)CC2)CCN1 [Compound 19, (3S)-1-({4-[1-(4-Chlorophenyl)-1H-pyrrolo[2,3-c]pyridin-3-yl]piperidin-1-yl}carbonyl)-3-(propan-2-yl) piperazine]
< 100 nM | CN1CCN(C)C(CNC(=O)N2CCC(c3cn(-c4ccc(Cl)cc4)c4cnccc34)CC2)C1 (centres unmarked) [Compound 21, 4-[1-(4-Chlorophenyl)-1H-pyrrolo[2,3-c]pyridin-3-yl]-N-[(1,4-dimethyl-piperazin-2-yl)methyl] piperidine-1-carboxamide]
< 100 nM | O=C(NCCN1CCOCC1)N1CCC(c2cn(-c3ccc(Cl)cc3)c3cnccc23)CC1 [Compound 22, 4-[1-(4-Chlorophenyl)-1H-pyrrolo[2,3-c]pyridin-3-yl]-N-[2-(morpholin-4-yl)ethyl]piperidine-1-carboxamide]
< 100 nM | O=C(NCCN1CCNCC1)N1CCC(c2cn(-c3ccc(Cl)cc3)c3cnccc23)CC1 [Compound 23, 4-[1-(4-Chlorophenyl)-1H-pyrrolo[2,3-c]pyridin-3-yl]-N-[2-(piperazin-1-yl)ethyl] piperidine-1-carboxamide]
